Source: patent US6979681B2, “Half-sandwich ruthenium (II) compounds comprising nitrogen containing ligands for treatment of cancer” (University Court, The University of Edinburgh, priority 1999, dated 2005)

These molecules were tested on A2780 ovarian cancer cell line (assay: Cell growth inhibition of Ru compounds on A2780 ovarian cancer cell line (24-well trays, Coulter counter)). Settings: 24 hours drug exposure, further 3 days growth, cell count.
Format: cell-based
Method: The compounds are tested on 24-well trays. Cells growing in a flask are harvested just before they become confluent, counted using a haemocytometer and diluted down with media to a concentration of 1×10^4 cells per ml. The cells are then seeded in the 24-well trays at a density of 1×10^4 cells per well (i.e. 1 ml of the diluted cell suspension is added to each well). The cells are then left to plate down and grow for 72 hours before adding the compounds of the invention.
The Ru complexes are weighed out and made up to a concentration of 1 mg/ml with deionised water then sonicated until they go into solution. The appropriate volume of the Ru solution is added to 5 ml of media to make it up to a concentration of 100 μM for each drug. This 100 μM solution is then serially diluted to make up the 10 μM, 1 μM and 0.1 μM solutions.
The media is removed from the cells and replaced with 1 ml of the media dosed with drug. Each concentration is done in duplicate. A set of control wells are left on each plate, containing media without drug.
The cells are left exposed to the drugs for 24 hours and then washed with phosphate buffered saline before fresh media is added.
They are allowed to grow on for a further 3 days before being counted using a Coulter counter.
Preparing cells for counting:
Media is removed and 1 ml of PBS is added to the cells.
250 μl of trypsin is added and cells left in incubator for a few minutes to allow the monolayers to detach.
Once trypsinised, 250 μl of media is added to each well to neutralise the trypsin. 200 μl of this suspension is added to 10 ml of NaCl for counting.
Using the above protocol, a number of compounds of the invention were tested on A2780 ovarian cancer cell line.

In order of falling IC50:
1. COC(=O)c1ccccc1.F[P-](F)(F)(F)(F)F.[Cl][Ru-]1[NH2+]CC[NH2+]1 [Example 8, [η^6-C6H5CO2CH3)RuCl(H2NCH2CH2NH2—N,N)]^+[PF6]^−]  55 µM
2. F[P-](F)(F)(F)(F)F.[I][Ru-]1[NH2+]CC[NH2+]1.c1ccccc1 [Example 4, [(η^6-C6H6)RuI(H2NCH2CH2NH2—N,N)]^+[PF6]^−]  20 µM
3. [(η^6-p-cymene)RuCl2(isonicotinamide)] [Example 7]  11 µM
4. F[P-](F)(F)(F)(F)F.[Cl][Ru-]1[NH2+]CC[NH2+]1.c1ccccc1 [Example 3, [(η^6-C6H6)RuCl(H2NCH2CH2NH2—N,N)]^+[PF6]^−]  8 µM
5. [(η^6-p-cymene)RuBr(CH3CN)2]^+[PF6]^− [Example 2]  8 µM
6. [(η^6-p-cymene)RuCl(H2NCH2CH2NH2—N,N)]^+[PF6]^− [Example 5]  8 µM
7. [(η^6-p-cymene)RuCl(CH3CN)2]^+[PF6]^− [Example 1]  7 µM
8. F[P-](F)(F)(F)(F)F.[Cl][Ru-]1[NH2+]CC[NH2+]1.c1ccc(-c2ccccc2)cc1 [Example 9, [(η^6-C6H5C6H5)RuCl(H2NCH2CH2NH2—N,N)]^+[PF6]^−]  6 µM
9. CC[NH+]1CC[NH2+][Ru-]1[Cl].F[P-](F)(F)(F)(F)F.c1ccc(-c2ccccc2)cc1 [Example 10, {(η^6-C6H5C6H5)RuCl[H2N(CH2)2NH(CH2CH3)]}^+PF6^−]  6 µM
10. [(η^6-p-cymene)RuI(H2NCH2CH2NH2—N, N)]^+[PF6]^− [Example 6]  6 µM
11. F[P-](F)(F)(F)(F)F.F[P-](F)(F)(F)(F)F.[Cl][Ru-]1[NH2+]CC[NH+]1CCCCCC[NH+]1CC[NH2+][Ru-]1[Cl].c1ccc(-c2ccccc2)cc1.c1ccc(-c2ccccc2)cc1 (centres unmarked) [Example 11, {[η^6-C6H5C6H5)RuCl]2[H2N(CH2)2NH(CH2)6NH(CH22NH2—N,N′,N″,N′″]}^2+2PF6^−]  5 µM
